# From patent publication US10300091B2, “Sustained release angiogenesis modulating compositions and methods for induction and modulation of angiogenesis” (University of Florida Research Foundation, Inc., priority 2013, dated 2019)
# Tested on: HUVEC
# Assay: Screening of TSP-1 in hPE-based angiogenesis assay
# Type: cell-based, human
# Method: Unless otherwise stated, 32 μl of placental extract was thawed and pipetted into each well of a 96 well plate. The extract was evenly coated onto the bottom of each well using an orbital shaker at 30 RPM for 1 minute. The coated plate was then incubated at 37° C. for 30 minutes. HUVEC were then plating by direct pipetting at 20000 cells/cm^2, 40000 cells/cm^2, or 80000 cells/cm^2. Multiple time points were investigated at each concentration including at days 1, 3, and 5. Thrombospondin-1 was tested as an angiogenesis inhibiting drug using final concentrations 0, 5, 10, 20, and 35 μg/μL diluted in endothelial cell media
# Network formation was analyzed after staining at a concentration of 2 μg/mL Calcein AM (Invitrogen-Life Technologies, NY, USA) with Endothelial cell culture media. In a dark room, dyed cells were incubated at 37° C., 5% CO2 for 30 minutes, and then images were taken using a Zeiss Axiovert 200 inverted Fluorescence microscope (Zeiss, Thornwood, N.Y.). Images were analyzed to determine the tubule length, tubule width, branch points, and other meshwork characterizations using ImageJ 1.45s (NIH, Bethesda, Md.). Branch points were assigned manually as the positions at every node where branches meet or tubules sprout, and tubule length was assessed by determining the curve length from branch point to connected branch point. Tubule width measurements were carried out in three different zones per tubule, with two zones each 10 μm from the start and end and one zone in the middle of the curve length. The percent area of coverage was determined by processing the images using the imageJ function “binary>>convert to mask” followed by measurement of the “mean.” In TSP-1 experiments, final values were normalized to no dose samples, calculated as the percentage of “1” values relative to the total count of pixel values, and given as “% area coverage”.
substance,measurement,setting,value
TSP-1: glycoprotein with potent inhibition activity on neovascularization; model anti-angiogenic drug,angiogenic network formation with TSP-1,"HUVEC on hPE treated plates, 1 d of culture",significantly reduced angiogenic network formation
same,total tubule-length and branch points as a function of TSP-1 concentration,"hPE-coated plates, 0-35 μg/μL TSP-1",decrease linearly
same,effect of TSP-1 on control HUVECs,"seeded directly onto uncoated tissue culture plates, 1 d",not affected
